This is an account of results in patent publication US6995157B2, “Substituted 4,5-dihydro-1,2,4-triazin-3-ones, 1,2,4-triazin-3-ones, and their use as fungicides and insecticides” (priority 2000, dated 2006).

Assay [1] relates to Pyricularia oryzae. The class given is in vivo. The conditions noted are these: protectant, 300 g/ha, greenhouse, inoculated 1 day after spraying, rated six days after inoculation; 100 is total disease control, 0 is no disease control.
The subject of assay [2] is Sphaerotheca fuliginea. The conditions noted are these: in vivo.

Regarding `CS(=O)(=O)N1CC(c2ccc(Cl)cc2)=NN(c2ccccc2)C1=O` [Compound 16], the RB percent control in assay [1] is 50%. In assay [2], this compound displayed a CPM percent control of 0%.

In turn, `CCCCCn1nc(-c2ccccc2)cnc1=O` [Compound 10] gave an RB percent control in assay [1] of 80%. For the same compound, the CPM percent control in assay [2] was found to be 0%.

`CCCCCCCCCCN1N=C(c2ccc(Cl)cc2)C(OC)NC1=O` (racemic) [Compound 17] gave an RB percent control in assay [1] of 80%. The compound also had a CPM percent control in assay [2] of 0%.

Compound `COC1NC(=O)N(C(C)(C)C)N=C1c1ccc(Cl)cc1` (racemic) [Compound 14] showed an RB percent control in assay [1] of 90%. This compound also showed a CPM percent control in assay [2] of 50%.

For `O=C1NCC(c2ccc(Cl)cc2)=NN1c1ccccc1` [Compound 15], the RB percent control in assay [1] came out at 75%. Further, the CPM percent control in assay [2] amounted to 0%.

`CN1CC(c2ccc(Cl)cc2)=NN(C#N)C1=O` [Compound 27] came in with an RB percent control in assay [1] of 50%. In assay [2], this compound registered a CPM percent control of 0%.

With `CC(C)(C)n1nc(-c2ccc(Cl)cc2)cnc1=O` [Compound 13], the RB percent control in assay [1] was 85%. Besides, in assay [2], the CPM percent control was determined as 0%.

`CN1CC(c2ccc(Cl)cc2)=NN(Cc2ccc(Cl)cc2)C1=O` [Compound 30] gave an RB percent control in assay [1] of 75%.

The compound `CN1CC(c2ccccc2Cl)=NN(Cc2ccc(Cl)cc2)C1=O` [Compound 29] yielded an RB percent control in assay [1] of 50%.

In the case of `CCCCCN1N=C(c2ccc(Cl)cc2)C(OC)NC1=O` (centres unmarked) [Compound 1, 2-pentyl-5-methoxy-6-(4-chlorophenyl)-4,5-dihydro-1,2,4-triazin-3-one], the RB percent control in assay [1] is 85%. For the same compound, the CPM percent control in assay [2] worked out at 0%.

Regarding `COC1NC(=O)N(c2ccccc2)N=C1c1ccc(Cl)cc1` (racemic) [Compound 18], the RB percent control in assay [1] amounted to 85%. In assay [2], this compound displayed a CPM percent control of 80%.

As for `COC1NC(=O)N(CC(F)(F)F)N=C1c1ccc(Cl)cc1` (racemic) [Compound 20], the RB percent control in assay [1] was 80%. The compound also came in with a CPM percent control in assay [2] of 0%.

Consider `CCCCCn1nc(-c2ccc(Cl)cc2)cnc1=O` [Compound 2, 2-pentyl-6-(4-chlorophenyl)-1,2,4-triazin-3-one], for which, in assay [1], the RB percent control was found to be 85%. In addition, the CPM percent control in assay [2] is listed as 50%.

For the compound `CCC#CCN1CC(c2ccc(Cl)cc2)=NN(C)C1=O` [Compound 32], in assay [1], the RB percent control worked out at 75%. In addition, the CPM percent control in assay [2] amounted to 75%.

For the compound `CCCCCn1nc(-c2ccc(OC)cc2)c(-c2ccc(OC)cc2)nc1=O` [Compound 8, 2-n-pentyl-5,6-bis-(4-methoxyphenyl)-1,2,4-triazin-3-one], in assay [1], the RB percent control is 50%. The compound also gave a CPM percent control in assay [2] of 0%.

Regarding `C#CCN1N=C(c2ccc(Cl)cc2)CN(CCC)C1=O` [Compound 28], the RB percent control in assay [1] stood at 50%. This compound also came in with a CPM percent control in assay [2] of 0%.

In assay [1], `COC1NC(=O)N(C)N=C1c1ccc(Cl)cc1` (racemic) [Compound 12] came in with an RB percent control of 80%. The compound also had a CPM percent control in assay [2] of 0%.

Regarding `CCCCCN1N=C(c2ccccc2)C(OC)NC1=O` (racemic) [Compound 9], the RB percent control in assay [1] is reported as 85%. This compound also displayed a CPM percent control in assay [2] of 0%.

In assay [1], `CN1N=C(c2ccc(Cl)cc2)CNC1=O` [Compound 33] registered an RB percent control of 80%. Besides, in assay [2], the CPM percent control is given as 0%.

Take `Cn1nc(-c2ccc(Cl)cc2)cnc1=O` [Compound 11]: in assay [1], the RB percent control was 80%. For the same compound, the CPM percent control in assay [2] amounted to 0%.

For the compound `CCC#CCn1nc(-c2ccc(Cl)cc2)cnc1=O` [Compound 31], in assay [1], the RB percent control is given as 85%. In addition, the CPM percent control in assay [2] came out at 50%.

With `CCCCN1N=C(c2ccc(Cl)cc2)C(OC)NC1=O` (centres unmarked) [Compound 3, 2-n-butyl-5-methoxy-6-(4-chlorophenyl)-4,5-dihydro-1,2,4-triazin-3-one], in assay [1], the RB percent control is 85%. In addition, the CPM percent control in assay [2] was 0%.

Turning to `CCCCN1N=C(c2ccc(Cl)cc2)CN(S(C)(=O)=O)C1=O` [Compound 5, 2-n-butyl-4-methanesulfonyl-6-(4-chlorophenyl)-4,5-dihydro-1,2,4-triazin-3-one], in assay [1], the RB percent control is reported as 0%. For the same compound, in assay [2], the CPM percent control was found to be 90%.

With `O=C1NCC(c2ccc(Cl)cc2)=NN1CC(F)(F)F` [Compound 19], the RB percent control in assay [1] turned out to be 75%. For the same compound, in assay [2], the CPM percent control turned out to be 0%.

On to `CCCCCn1nc(-c2ccc(OC)cc2)cnc1=O` [Compound 34], for which the RB percent control in assay [1] turned out to be 85%. This compound displayed a CPM percent control in assay [2] of 0%.

Compound `CCCCn1nc(-c2ccc(Cl)cc2)cnc1=O` [Compound 4, 2-n-butyl-6-(4-chlorophenyl)-1,2,4-triazin-3-one] registered an RB percent control in assay [1] of 85%. In assay [2], this compound yielded a CPM percent control of 0%.
